Reference: patent US9073882B2, “Inhibitors of the renal outer medullary potassium channel” (Merck Sharp & Dohme Corp., priority 2010, dated 2015)

Target: hROMK1 (Kir1.1) (Homo sapiens (Human), UniProt P48048)
Assay: ^86Rb^+ Efflux Assay
Format: cell-based
Conditions: CHO-DHFR- cells stably expressing hROMK1 (Kir1.1); value in parentheses at the end of each Example; read-out: IC50 in the ^86Rb^+ Efflux Assay

Sequence of hROMK1 (Kir1.1) (P48048 whole entry): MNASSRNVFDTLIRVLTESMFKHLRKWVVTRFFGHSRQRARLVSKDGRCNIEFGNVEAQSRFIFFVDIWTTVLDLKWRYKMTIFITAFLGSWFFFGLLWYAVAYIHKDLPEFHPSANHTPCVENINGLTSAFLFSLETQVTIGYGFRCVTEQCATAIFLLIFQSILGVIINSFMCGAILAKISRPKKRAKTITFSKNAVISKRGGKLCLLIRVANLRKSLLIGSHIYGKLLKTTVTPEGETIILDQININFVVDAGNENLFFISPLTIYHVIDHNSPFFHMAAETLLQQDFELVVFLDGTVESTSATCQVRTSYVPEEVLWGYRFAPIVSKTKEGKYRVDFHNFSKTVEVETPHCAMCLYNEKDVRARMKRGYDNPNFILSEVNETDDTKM

Row | SMILES | IC50
1 | Cc1cc(C#N)ccc1CCN1CCN(CCc2ccc([N+](=O)[O-])cc2)CC1 [Example 23, 3-Methyl-4-(2-{4-[2-(4-nitrophenyl)ethyl]piperazin-1-yl}ethyl)benzonitrile] | 62 nM
2 | COc1cc(CC(C)N2CCN(CCc3ccc4c(c3)COC4=O)CC2)ccc1C#N (stereo not shown) [Example 48, 2-Methoxy-4-[2-[4-[2-(1-oxo-3H-isobenzofuran-5-yl)ethyl]piperazin-1-yl]propyl]benzonitrile] | 210 nM
3 | O=[N+]([O-])c1ccc(CCN2CC3CCC(C2)N3CCc2ccc([N+](=O)[O-])cc2)cc1 [Example 16, 3,8-Bis-[2-(4-nitrophenyl)ethyl]-3,8-diazabicyclo[3.2.1]octane] | 190 nM
4 | N#Cc1ccc2c(c1)CC(N1CCN(CCc3ccc([N+](=O)[O-])cc3)CC1)C2 (stereo not shown) [Example 29, 2-{4-[2-(4-Nitrophenyl)ethyl]piperazin-1-yl}-2,3-dihydro-1H-indene-5-carbonitrile] | 730 nM
5 | O=C1OCc2cc(CCN3CCN(CCc4ccc(-n5cnnn5)nc4)CC3)ccc21 [Example 42, 5-[2-[4-[2-[6-(Tetrazol-1-yl)-3-pyridyl]ethyl]piperazin-1-yl]ethyl]-3H-isobenzofuran-1-one] | 910 nM
6 | O=[N+]([O-])c1ccc(CCN2CCN(CCc3ccc([N+](=O)[O-])cc3C(F)(F)F)CC2)cc1 [Example 15, 1-[2-(4-Nitrophenyl)ethyl]-4-{2-[4-nitro-2-(trifluoromethyl)phenyl]ethyl}piperazine] | 440 nM
7 | O=[N+]([O-])c1ccc(CCN2CCN(CCc3ccc([N+](=O)[O-])cc3)C(C(F)F)C2)cc1 (stereo not shown) [Example 12, 2-(Difluoromethyl)-1,4-bis[2-(4-nitrophenyl)ethyl]piperazine] | 440 nM
8 | COC(=O)[C@H](Cc1ccc([N+](=O)[O-])cc1)N1CCN(CCc2ccc([N+](=O)[O-])cc2)CC1 [Example 8, Methyl(2S)-3-(4-nitrophenyl)-2-{4-[2-(4-nitrophenyl)ethyl]piperazin-1-yl}propanoate] | 510 nM
9 | O=[N+]([O-])c1ccc(CCN2CCN(C3Cc4ccc([N+](=O)[O-])cc4C3)CC2)cc1 (stereo not shown) [Example 30, 1-(5-Nitro-2,3-dihydro-1H-inden-2-yl)-4-[2-(4-nitrophenyl)ethyl]piperazine] | 310 nM

Continued, values first:

Row | IC50 | SMILES
10 | 180 nM | COc1c(C#N)ccc(CCN2CCN(CCc3ccc4c(c3)COC4=O)CC2)c1C [Example 83, 2-Methoxy-3-methyl-4-(2-{4-[2-(1-oxo-1,3-dihydro-2-benzofuran-5-yl)ethyl]piperazin-1-yl}ethyl)benzonitrile]
11 | 74 nM | CCOc1cc(CCN2CCN(CCc3ccc4c(c3C)COC4=O)CC2)ccc1C#N [Example 77, 2-Ethoxy-4-(2-{4-[2-(4-methyl-1-oxo-1,3-dihydro-2-benzofuran-5-yl)ethyl]piperazin-1-yl}ethyl)benzonitrile]
12 | 91 nM | COc1c(C#N)ccc(CCN2CCN(CCc3ccc4c(c3C)COC4=O)CC2)c1F [Example 73, 3-Fluoro-2-methoxy-4-(2-{4-[2-(4-methyl-1-oxo-1,3-dihydro-2-benzofuran-5-yl)ethyl]piperazin-1-yl}ethyl)benzonitrile]
13 | 220 nM | Cc1c(C(C)CN2CCN(CC(C)c3ccc4c(c3C)COC4=O)CC2)ccc2c1COC2=O (stereo not shown) [Example 93]
14 | 150 nM | N#Cc1ccc(CCN2CCN(CCc3ccc4c(c3)COC4=O)CC2)cc1OC(F)F [Example 63, 2-(Difluoromethoxy)-4-(2-{4-[2-(1-oxo-1,3-dihydro-2-benzofuran-5-yl)ethyl]piperazin-1-yl}ethyl)benzonitrile]
15 | 180 nM | Cc1c(CCN2CCN(CC3CCOc4cc(C#N)ccc43)CC2)ccc2c1COC2=O (stereo not shown) [Example 91, 4-({4-[2-(4-Methyl-1-oxo-1,3-dihydro-2-benzofuran-5-yl)ethyl]piperazin-1-yl}methyl)-3,4-dihydro-2H-chromene-7-carbonitrile]
16 | 92 nM | COc1c(C#N)ccc(CCN2CCN(CCc3ccc4c(c3)COC4=O)CC2)c1F [Example 72, 3-Fluoro-2-methoxy-4-(2-{4-[2-(1-oxo-1,3-dihydro-2-benzofuran-5-yl)ethyl]piperazin-1-yl}ethyl)benzonitrile]
